Experimental data: article PMC10907298 (Nature chemical biology, 2023)
Several values for one entry are separate records, joined by “and”; a condition that tells them apart may be missing. Identical values can stand only once. Entries after “also recorded” stand apart in the source; their conditions may differ.

Legend:
[1] = tested on: anti-SIY tumor T cell response; experiment: IFN-γ ELISPOT of PBMC stimulated with SIY peptide; format: in vivo, mouse; conditions: for IFN-γ Spots/2x105 PBMC: 6 days post treatment, SIY peptide, individual animals
human STING L98A = human STING L98A (Homo sapiens, UniProt Q86WV6, L98A); experiment: ISRE reporter assay with STING co-transfection in HEK293T cells
human STING L98A, sequence (Q86WV6 whole entry L98A): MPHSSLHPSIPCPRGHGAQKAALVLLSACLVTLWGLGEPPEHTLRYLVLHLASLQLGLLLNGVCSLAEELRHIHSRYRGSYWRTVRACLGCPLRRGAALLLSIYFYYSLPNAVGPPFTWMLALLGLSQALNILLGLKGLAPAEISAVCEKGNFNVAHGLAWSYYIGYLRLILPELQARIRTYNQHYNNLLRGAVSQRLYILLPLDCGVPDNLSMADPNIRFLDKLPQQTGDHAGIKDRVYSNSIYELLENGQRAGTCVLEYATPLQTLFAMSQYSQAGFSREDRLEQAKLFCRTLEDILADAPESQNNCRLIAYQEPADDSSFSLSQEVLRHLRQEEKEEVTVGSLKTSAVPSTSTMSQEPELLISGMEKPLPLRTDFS

human STING R95C = human STING R95C (Homo sapiens, UniProt Q86WV6, R95C); experiment: as above
human STING R95C, sequence (Q86WV6 whole entry R95C): as the sequence (Q86WV6 whole entry L98A) above, with R95C, A98L counted along it

hSTING(R95A)-GFP = hSTING(R95A)-GFP (Homo sapiens, UniProt Q86WV6, R95A); experiment: STING translocation/aggregate (puncta) assay in HEK293T cells; format: cell-based; conditions: 50 μM, overnight
hSTING(R95A)-GFP, sequence (Q86WV6 whole entry R95A): as the sequence (Q86WV6 whole entry L98A) above, with R95A, A98L counted along it

human STING R95A = human STING R95A (Homo sapiens, UniProt Q86WV6, R95A); experiment: ISRE reporter assay with STING co-transfection in HEK293T cells
human STING R95A, sequence (Q86WV6 whole entry R95A): as the sequence (Q86WV6 whole entry L98A) above, with R95A, A98L counted along it

IFN-γ = IFN-γ level 6 h after intratumoral injection (MSD); format: in vivo, mouse; conditions: for IFNg: 6 hours post-dosing, B16-SIY, hSTING KI mice, individual animals
[2] = target: purified human STING R95A (Homo sapiens, UniProt Q86WV6, R95A); experiment: native gel analysis of STING oligomerization; conditions: R95A mutant
purified human STING R95A, sequence (Q86WV6 1-343 R95A): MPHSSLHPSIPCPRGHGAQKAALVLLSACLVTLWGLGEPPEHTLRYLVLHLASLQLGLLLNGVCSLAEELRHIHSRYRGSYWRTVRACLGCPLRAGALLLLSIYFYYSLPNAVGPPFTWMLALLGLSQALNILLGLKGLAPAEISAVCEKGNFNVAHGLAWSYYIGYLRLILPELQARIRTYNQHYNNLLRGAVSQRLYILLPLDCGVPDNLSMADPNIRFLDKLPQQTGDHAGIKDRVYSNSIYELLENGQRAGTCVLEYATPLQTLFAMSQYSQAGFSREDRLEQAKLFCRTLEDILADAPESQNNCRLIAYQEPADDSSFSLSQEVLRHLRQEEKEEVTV

mouse STING = target: T1, mouse STING (Mus musculus, UniProt Q3TBT3); experiment: ISRE reporter assay with STING co-transfection in HEK293T cells; format: cell-based
T1 sequence (Q3TBT3 1-378): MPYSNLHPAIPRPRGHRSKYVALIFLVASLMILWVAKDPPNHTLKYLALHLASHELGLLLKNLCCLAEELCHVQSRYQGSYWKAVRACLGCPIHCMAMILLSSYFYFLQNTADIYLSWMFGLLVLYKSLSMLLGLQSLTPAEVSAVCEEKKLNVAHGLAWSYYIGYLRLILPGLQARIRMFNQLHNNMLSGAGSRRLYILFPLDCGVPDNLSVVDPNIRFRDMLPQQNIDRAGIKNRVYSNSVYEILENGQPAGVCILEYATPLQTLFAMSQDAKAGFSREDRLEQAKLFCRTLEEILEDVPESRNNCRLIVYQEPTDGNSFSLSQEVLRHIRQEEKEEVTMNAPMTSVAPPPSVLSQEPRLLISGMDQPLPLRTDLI

[3] = target: hSTING(1–153)–mSTING(153–378) chimera (Homo sapiens, UniProt Q86WV6, A215V/A300E/A302V/A313V/A318T/A350V/D237N/D297E/D320G/E174G/E362R/E369D/G230I/G344N/H185L/H232R/I244V/K224M/K347M/K370Q/L189M/L202F/L222R/L247I/L333I/L346P/M214V/M357L/Q196R/Q276K/Q306R/R191S/R253P/S275A/S321N/S345A/S353P/T181M/T229N/T256V/T354P/T356V/V194G/V258I/V343M/V351A/Y182F/Y186H/Y274D); experiment: as above; format: cell-based, human/mouse; conditions: for ISRE reporter activity, mean: h(1-153)/m(153-378)STING
hSTING(1–153)–mSTING(153–378) chimera, sequence (Q86WV6 with tags, fused parts or gaps with the stated changes): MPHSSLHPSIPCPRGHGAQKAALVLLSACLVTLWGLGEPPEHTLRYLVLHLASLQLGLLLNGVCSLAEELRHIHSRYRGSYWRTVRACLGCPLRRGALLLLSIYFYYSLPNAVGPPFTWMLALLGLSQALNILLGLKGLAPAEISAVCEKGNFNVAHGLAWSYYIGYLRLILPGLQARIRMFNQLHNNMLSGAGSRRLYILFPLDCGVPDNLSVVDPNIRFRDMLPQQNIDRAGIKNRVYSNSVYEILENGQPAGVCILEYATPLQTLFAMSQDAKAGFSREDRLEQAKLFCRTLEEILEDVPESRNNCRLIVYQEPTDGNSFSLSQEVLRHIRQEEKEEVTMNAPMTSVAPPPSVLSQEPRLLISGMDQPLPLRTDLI

human STING L136A = human STING L136A (Homo sapiens, UniProt Q86WV6, L136A); experiment: as above
human STING L136A, sequence (Q86WV6 whole entry L136A): as the sequence (Q86WV6 whole entry L98A) above, with A98L, L136A counted along it

human STING = human STING (Homo sapiens, UniProt Q86WV6, G230A/R293Q/R71H); experiment: THP1-Dual ISRE-Luc reporter gene assay (primary screen and dose response); conditions: for THP1-Dual reporter activity: single replicates (n=2)
human STING, sequence (Q86WV6 whole entry R71H/G230A/R293Q): as the sequence (Q86WV6 whole entry L98A) above, with R71H, A98L, G230A, R293Q counted along it

[4] = tested on: BMDM, human STING knock-in; experiment: IP10 induction in bone marrow-derived macrophages; format: cell-based, mouse; conditions: 50μM, n=1
human STING L134A = human STING L134A (Homo sapiens, UniProt Q86WV6, L134A); experiment: ISRE reporter assay with STING co-transfection in HEK293T cells
human STING L134A, sequence (Q86WV6 whole entry L134A): as the sequence (Q86WV6 whole entry L98A) above, with A98L, L134A counted along it

With COc1cc(C(=O)O)ccc1NCc1ccc(C2(C(C)(C)C)OCC(C)(C)CO2)cc1 [NVS-STG2] the “IFN-γ Spots/2x105 PBMC” value ([1]; 400μg intratumorally) was 141.667 Spots/2x105 PBMC and 96.3333 Spots/2x105 PBMC and 50 Spots/2x105 PBMC and 252 Spots/2x105 PBMC and 47 Spots/2x105 PBMC and 48 Spots/2x105 PBMC and 38.6667 Spots/2x105 PBMC and 77.3333 Spots/2x105 PBMC and 194.333 Spots/2x105 PBMC, the “IFN-γ Spots/2x105 PBMC” value ([1]; 800μg intratumorally) was 144 Spots/2x105 PBMC and 181.5 Spots/2x105 PBMC and 154.667 Spots/2x105 PBMC and 138.333 Spots/2x105 PBMC and 210 Spots/2x105 PBMC and 286.333 Spots/2x105 PBMC and 79.5 Spots/2x105 PBMC and 96.3333 Spots/2x105 PBMC and the “T-cell priming response in words” value ([1]; B16-SIY, hSTING KI mice) was “dose dependent and significant induction of T-cell priming response”. The “STING activation in words” value (human STING L98A) was “various degrees of reduction”, the “STING activation in words” value (human STING R95C) was “lost all activity; also recorded: essentially irresponsive” and the “ISRE reporter activity, mean” value (human STING R95C; Log[μM] 0.2) was 0.9. The “ISRE reporter activity, mean” value (human STING R95C; Log[μM] 0.5) was 0.8, the “ISRE reporter activity, mean” value (human STING R95C; Log[μM] 0.8) was 1.1 and the “ISRE reporter activity, mean” value (human STING R95C; Log[μM] 1.1) was 1.9. For the same compound, the “ISRE reporter activity, mean” value (human STING R95C; Log[μM] 1.4) was 2.1, the “ISRE reporter activity, mean” value (human STING R95C; Log[μM] -0.1) was 0.8 and the “ISRE reporter activity, mean” value (human STING R95C; Log[μM] -0.4) was 0.8. The “ISRE reporter activity, mean” value (human STING R95C; Log[μM] -0.7) was 0.8, the “ISRE reporter activity, mean” value (human STING R95C; Log[μM] -1) was 0.7 and the “ISRE reporter activity, mean” value (human STING R95C; Log[μM] -1.3) was 0.7. For the same compound, the “puncta-like structure formation in words” value (hSTING(R95A)-GFP) was “lost the ability to form puncta-like structures”, the “STING activation in words” value (human STING R95A) was “various degrees of reduction; also recorded: essentially irresponsive” and the IFNg (IFN-γ; 400μg intratumorally) was 39.4953 pg/mL and 46.0042 pg/mL and 12.5471 pg/mL and 24.0798 pg/mL and 11.9723 pg/mL and 24.0458 pg/mL and 11.7115 pg/mL and 37.7 pg/mL and 31.9987 pg/mL. The IFNg (IFN-γ; 800μg intratumorally) was 69.5013 pg/mL and 56.155 pg/mL and 39.6205 pg/mL and 20.7743 pg/mL and 42.9846 pg/mL and 43.1066 pg/mL and 31.0552 pg/mL and 38.6876 pg/mL and 47.5545 pg/mL, the “plasma IFNγ level in words” value (IFN-γ; 6-hour post dosing) was “significant increase of plasma IFNγ level” and the “induction of STING oligomerization in words” value [2] was “notable defect in higher-order oligomer formation”. For the same compound, the “ISRE reporter activity, mean” value (mouse STING; mSTING WT, Log[μM] 0.3, Figure S1g) was -5.609, the “ISRE reporter activity, mean” value (mouse STING; mSTING WT, Log[μM] 1, Figure S1g) was -12.1937 and the “ISRE reporter activity, mean” value (mouse STING; mSTING WT, Log[μM] 1.7, Figure S1g) was -31.614. For the same compound, the “ISRE reporter activity, mean” value (mouse STING; mSTING WT, Log[μM] -0.4, Figure S1g) was -7.536, the “ISRE reporter activity, mean” value (mouse STING; mSTING WT, Log[μM] -1.1, Figure S1g) was -5.586 and the “ISRE reporter activity, mean” value (mouse STING; mSTING WT, Log[μM] -1.8, Figure S1g) was -3.154. The “ISRE reporter activity, mean” value (mouse STING; mSTING, Log[μM] 0.2) was 0.9, the “ISRE reporter activity, mean” value (mouse STING; mSTING, Log[μM] 0.5) was 1 and the “ISRE reporter activity, mean” value (mouse STING; mSTING, Log[μM] 0.8) was 1.1. The “ISRE reporter activity, mean” value (mouse STING; mSTING, Log[μM] 1.1) was 0.8, the “ISRE reporter activity, mean” value (mouse STING; mSTING, Log[μM] 1.4) was 0.9 and the “ISRE reporter activity, mean” value (mouse STING; mSTING, Log[μM] -0.1) was 0.9. The “ISRE reporter activity, mean” value (mouse STING; mSTING, Log[μM] -0.4) was 1.1, the “ISRE reporter activity, mean” value (mouse STING; mSTING, Log[μM] -0.7) was 1 and the “ISRE reporter activity, mean” value (mouse STING; mSTING, Log[μM] -1) was 1. For the same compound, the “ISRE reporter activity, mean” value ([3]; Log[μM] 0.2) was 5.4, the “ISRE reporter activity, mean” value ([3]; Log[μM] 0.5) was 12 and the “ISRE reporter activity, mean” value ([3]; Log[μM] 0.8) was 17.4. The “ISRE reporter activity, mean” value ([3]; Log[μM] 1.1) was 24.2, the “ISRE reporter activity, mean” value ([3]; Log[μM] 1.4) was 26.3 and the “ISRE reporter activity, mean” value ([3]; Log[μM] -0.1) was 2.6. The “ISRE reporter activity, mean” value ([3]; Log[μM] -0.4) was 1.4, the “ISRE reporter activity, mean” value ([3]; Log[μM] -0.7) was 0.8 and the “ISRE reporter activity, mean” value ([3]; Log[μM] -1) was 0.7. The “ISRE reporter activity, mean” value ([3]; Log[μM] -1.3) was 0.7, the “STING activation in words” value ([3]; hSTING TMD–mSTING LBD chimera) was “induced significant activation” and the “STING activation in words” value (human STING L136A) was “enhancement of activity”. For the same compound, the “ISRE reporter activity, mean” value (human STING L136A; Log[μM] 0.3, Figure 3c) was 219.432, the “ISRE reporter activity, mean” value (human STING L136A; Log[μM] 1, Figure 3c) was 217.628 and the “ISRE reporter activity, mean” value (human STING L136A; Log[μM] -0.4, Figure 3c) was 223.566. The “ISRE reporter activity, mean” value (human STING L136A; Log[μM] -1.1, Figure 3c) was 146.908, the “ISRE reporter activity, mean” value (human STING L136A; Log[μM] -1.8, Figure 3c) was 75.9441 and the “ISRE reporter activity, mean” value (human STING L136A; Log[μM] -2.49, Figure 3c) was 15.9853. The “ISRE reporter activity, mean” value (human STING L136A; Log[μM] -3.19, Figure 3c) was 27.3277, the “improvement of AC50 over NVS-STG1” value (human STING) was roughly 10 fold and the “induction of ISRE-Luc reporter” value (human STING) was “over 100 fold”. For the same compound, the THP1-Dual reporter activity (human STING; 97.7 nM) was 10.063 and -15.21, the THP1-Dual reporter activity (human STING; 195 nM) was 30.21 and -21.271 and the THP1-Dual reporter activity (human STING; 391 nM) was 28.405 and -4.368. The THP1-Dual reporter activity (human STING; 781 nM) was -15.248 and 7.115, the THP1-Dual reporter activity (human STING; 1563 nM) was 29.455 and 0.573 and the THP1-Dual reporter activity (human STING; 3125 nM) was 539.702 and 407.097. For the same compound, the THP1-Dual reporter activity (human STING; 6250 nM) was 5408.19 and 4554.72, the THP1-Dual reporter activity (human STING; 12500 nM) was 9931.09 and 8981.43 and the THP1-Dual reporter activity (human STING; 25000 nM) was 8940.66 and 8036.74. For the same compound, the IP10 ([4]; BMDM hSTING+/+) was 5284 pg/mL, the IP10 ([4]; BMDM hSTING+/indel) was 1541.25 pg/mL and the “STING activation in words” value (human STING L134A) was “various degrees of reduction”. The “ISRE reporter activity, mean” value (human STING L134A; Log[μM] 0.3, Figure 3c) was 5.454, the “ISRE reporter activity, mean” value (human STING L134A; Log[μM] 1, Figure 3c) was 26.4486 and the “ISRE reporter activity, mean” value (human STING L134A; Log[μM] -0.4, Figure 3c) was 2.468. The “ISRE reporter activity, mean” value (human STING L134A; Log[μM] -1.1, Figure 3c) was -1.106, the “ISRE reporter activity, mean” value (human STING L134A; Log[μM] -1.8, Figure 3c) was 1.759 and the “ISRE reporter activity, mean” value (human STING L134A; Log[μM] -2.49, Figure 3c) was 2.73. For the same compound, the “ISRE reporter activity, mean” value (human STING L134A; Log[μM] -3.19, Figure 3c) was 5.607.
